Assay [1] has as its target T1, AMY3 receptor (CTR+RAMP3), HEK293-AMY3 cells (Homo sapiens, UniProt O60896+P30988).
T1 construct: expressed in transfected cells; AMY3-293 / AMY3-HEK)
T1 sequence (P30988 25-474): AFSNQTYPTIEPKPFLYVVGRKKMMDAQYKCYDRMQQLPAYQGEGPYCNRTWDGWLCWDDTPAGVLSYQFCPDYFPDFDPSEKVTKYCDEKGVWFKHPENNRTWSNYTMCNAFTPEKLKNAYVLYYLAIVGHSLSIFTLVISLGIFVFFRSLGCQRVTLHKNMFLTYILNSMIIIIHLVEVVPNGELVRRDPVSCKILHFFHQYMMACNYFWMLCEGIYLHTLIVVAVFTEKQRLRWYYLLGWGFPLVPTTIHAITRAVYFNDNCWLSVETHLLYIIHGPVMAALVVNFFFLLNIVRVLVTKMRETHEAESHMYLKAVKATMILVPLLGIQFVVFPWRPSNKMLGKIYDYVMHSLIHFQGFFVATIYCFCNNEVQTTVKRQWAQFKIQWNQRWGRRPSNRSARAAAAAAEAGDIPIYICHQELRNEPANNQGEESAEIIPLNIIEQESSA
T1 sequence (O60896 24-148 partner): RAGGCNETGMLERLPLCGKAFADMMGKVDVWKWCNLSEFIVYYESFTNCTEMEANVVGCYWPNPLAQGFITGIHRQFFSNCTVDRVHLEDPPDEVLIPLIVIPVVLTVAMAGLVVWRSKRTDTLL
As to the kind of experiment: Peptide array-cell binding assay, AMY3 cells. The following applies: membrane-bound peptides, GFP cells. The source says: A peptide array library derived from AC253 peptide sequence comprising 14 short peptide sequences namely, R1-R14 (R-R13 are 12 amino acids, peptide R14 is 14 aa), was synthesized in duplicate on a cellulose membrane using SPOT synthesis. Briefly, peptide fragments were designed by selecting the first 12 amino acids from N-terminus, skipping one amino acid and moving towards C-terminus to yield 13 sequences R1-R13, and peptide R14 is the first 14 amino acid of the N-terminus region of AC253. The peptide array was synthesized on a PEG-500-derivatized cellulose membrane with a free amino terminal group using a semiautomatic robot AutoSpot ASP222 (Intavis AG, Germany). Synthesis of peptides on PEG500 derivatised cellulose membrane was started by attaching first β-alanine residue (linker) to the cellulose membrane and subsequently peptides synthesized from the C-terminus. […]
To screen the peptide library for amylin receptor binding affinity, transfected GFP-positive Human Embryonic Kidney 293 cells that express AMY3 receptor (CTR+RAMP3) was used. […] The peptide array membrane was incubated with 20 ml GFP-cells (75,000/ml) in serum free media for 3 hr, and after washing, the net fluorescence intensity of each peptide spot due to bound cells was quantified using a Kodak imager. […] Duplicate peptide spots, two scans, and two different experiments were used to calculate net fluorescence intensity. […]

In assay [2] the test system is human neuroblastoma, SK-N-SH cells. The assay is described as follows: Aβ1-42 cytotoxicity (MTT) in SK-N-SH cells. It counts as cell-based. The following applies: Aβ1-42 20 μM. As to the method:
f) To investigate the antagonistic activity of peptide fragments against Aβ cytotoxicity in vitro, (human fetal neurons) HFNs, human neuroblastoma, SK-N-SH cells and N2a mouse neuroblastoma cells were used. Cells were seeded to 5000 cells/well in a 96-well plate in MEM-10% FBS and DMEM/OptiMEM-5% FBS for overnight. Cells in culture media were preincubated for 8 h with or without AC253 or fragments R5, R14, R11, and followed by treatment with Aβ1-42 for 24 h. At the end of treatment, 20 μl of 5 mg/ml methylthiazolyldiphenyl-tetrazolium bromide (MTT) was added to each well, and incubated at 37° C. for 3 h. Medium was removed, 100 μl of MTT solvent (isopropanol with 4 mM HCl) added to each well, and the plates were incubated for 30 min at room temperature on a rotating shaker. Plates were analyzed on a microplate reader at a 562-nm wavelength.

The next assay deals with T2, AMY1 (Homo sapiens, UniProt O60894+P30988).
T2 construct: expressed in transfected cells
T2 sequence (O60894 27-148 partner, one chain of several): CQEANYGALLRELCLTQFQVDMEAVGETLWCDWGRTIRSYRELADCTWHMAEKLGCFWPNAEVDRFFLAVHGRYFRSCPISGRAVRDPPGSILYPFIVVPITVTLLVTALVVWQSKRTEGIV
As to the kind of experiment: Flow cytometry cell uptake, AMY1 cells. It counts as cell-based. The following applies: 10 μM, 37° C., 60 min.

Residues, ends and D or L forms follow the SMILES beside them. No end group written: not given here.

This note sets out measurements from US10766940B2, “Brain penetrant amylin receptor based peptides for Alzheimer's disease” (The Governors of the University of Alberta, priority 2016, dated 2020).

As to `CC(C)C[C@H](NC(=O)[C@H](CCC(=O)O)NC(=O)[C@H](CCC(N)=O)NC(=O)[C@@H](N)CO)C(=O)N[C@@H](Cc1c[nH]cn1)C(=O)N[C@@H](CCCNC(=N)N)C(=O)N[C@@H](CC(C)C)C(=O)N[C@@H](CCC(N)=O)C(=O)N[C@H](C(=O)N[C@@H](Cc1ccc(O)cc1)C(=O)N1CCC[C@H]1C(=O)N[C@@H](CCCNC(=N)N)C(N)=O)[C@@H](C)O` [R5] (H-SQELHRLQTYPR-NH2; N-terminus assumed), the “binding to HEK293-AMY3 cells on peptide array (fluorescence)” value in assay [1] is listed as “most significant binding”. Also, the “block of Aβ1-42 triggered cell death, SK-N-SH (MTT)” value in assay [2] is “block the effect of Aβ1-42”. Besides, the “flow cytometry binding to AMY1 cells” value at AMY1 was “selective and significant specific binding”.
For “LGRLSQELHRLQTY (LGRLSQELHRLQTY-NH2) [R14]”, the “binding to HEK293-AMY3 cells on peptide array (fluorescence)” value in assay [1] is recorded as “most significant binding”. The “block of Aβ1-42 triggered cell death, SK-N-SH (MTT)” value in assay [2] is on record as “block the effect of Aβ1-42”. Further, the “flow cytometry binding to AMY1 cells” value in the assay with AMY1 is “selective and significant specific binding”.
